Data: paper PMC7466059, “Synthesis and Ex Vivo Trans-Corneal Permeation of Penetratin Analogues as Ophthalmic Carriers: Preliminary Results” (Pharmaceutics, 2020)
Read-outs that look alike come from different tables or passages of the source. Marks after values point to notes of the source that are not given here. Values belong to the compound of their own block, whether it stands above or below them. Peptide text beside a SMILES is read from it. * marks the point of attachment. 5FAM = O=C1OC2(c3ccc(O)cc3Oc3cc(O)ccc32)c2ccc(C(=O)*)cc21

What was measured:
[1] = FAM alone, trans-corneal; cited from earlier work
Text: Finally, also the propensity of CPPs to enter corneal epithelium and endothelium cells should be considered.

[2] = Ex vivo trans-corneal permeation, Franz-type diffusion cells; assay type: in vitro ADME, pig; details: ex vivo porcine cornea, area 0.2 cm^2, 37 °C, 6 h, fluorescence 485/535 nm, mean ± sd
Protocol: (§1) Permeation experiments across freshly porcine cornea were performed following a method previously reported. In detail, transparent porcine corneas were isolated from fresh pig eyes (breed: Large White and Landrace; weight: 145–190 kg; age: 10–11 months; sex: female and male; Macello Annoni SpA, Busseto, Italy) and supported by glass Franz-type diffusion cells, having a permeation area of 0.2 cm^2. The epithelial side was in contact with the donor, i.e., 200 µL of aqueous solution containing a peptide: each concentration and solvent are indicated in Table 2. Donor concentrations were selected based on different solubility and analytical sensitivity (see paragraph 2.4 and Table S2). For some peptides, the solubilization was improved by dissolving the raw material using small amount of DMSO (final concentration less than 5% v/v), and then PBS or PBS+0.1% BSA were alternately added.
To fill the receptor compartment, around 4 mL of degassed PBS or PBS+0.1% BSA was used (see Table 2), being kept at 37 °C and maintained under magnetic stirring to avoid any boundary layer effect. The presence of 0.1% BSA aids in preventing peptides aggregation. Permeation experiments lasted 6 h, and for quantification purposes, 200 µL of the receiving solution were collected every hour and reintegrated with fresh medium. Each condition was replicated between 3 and 4 times, using cornea isolated from different animals.
Permeation samples were analysed without preliminary separation by fluorescence, using a Spark 10M microplate reader (Tecan Trading AG, Switzerland); excitation and emission wavelengths were 485 nm and 535 nm, respectively. Standard solutions were prepared in PBS pH 7.4 or in PBS containing BSA 0.1%. RSD% (relative standard deviation %) was lower than 10%, while ER% (relative error %) resulted lower than 15%.
The amount of CPP permeated across the cornea (nmol/cm^2) is plotted against time (hour): the slope of the regression line at steady state represents the trans-corneal flux J (nmol/cm^2 h). The apparent permeability coefficient Papp (cm/s) is then calculated as Equation (1): Papp = J/c(1) being c (µM) the concentration of the donor solution. Papp allows for a direct comparison among permeants studied using different donor concentrations.

[3] = Aqueous solubility / precipitation of donor solutions (observation); assay type: physicochemical; details: for solubilization of donor solution: 250 µM, PBS pH 7.4; for solubility in aqueous medium: fluorescein (FL) as cargo, not used in ex vivo permeation experiments
Protocol: as §1
We have also analysed if the sequence reciprocity (GG vs. R) plays a role in the diffusivity of the peptide across the cornea and we found no difference between most of the paired sequences, namely PNT-GG 2 vs. PNT-R 4, PNT-GG 3 vs. PNT-R 3, PNT-GG 4 vs. PNT-R 2, PNT-GG 5 vs. PNT-R 1 (Figure 3b). This confirms that the sequence is only one of the factors affecting the translocation: in fact, even CPP concentration, type of cells, and cargo can strongly influence CPP final behavior/activity. […] Differently, the presence of FAM, a more hydrophilic fluorescent probe, allowed for aqueous solutions ranging in concentration from 25 to 250 µM (Table 2).

[4] = donor 100 µM, 200 µL, donor and receiving solutions PBS+BSA 0.1% pH 7.4, n = 3
[5] = donor 25 µM, 200 µL, donor and receiving solutions PBS pH 7.4, n = 4
[6] = donor 250 µM, 200 µL, donor and receiving solutions PBS pH 7.4, n = 3-4

Compound: 5(6)-Carboxyfluorescein [FAM]
- Papp (apparent permeability coefficient) [1]: 0.29 ± 0.08 × 10^−6 cm/s

Compound: CSCC[C@H](NC(=O)[C@H](CCCNC(=N)N)NC(=O)[C@H](CCCNC(=N)N)NC(=O)[C@H](CC(N)=O)NC(=O)CNC(=O)CNC(=O)c1ccc2c(c1)C(=O)OC21c2ccc(O)cc2Oc2cc(O)ccc21)C(=O)N[C@@H](CCCCN)C(=O)N[C@@H](Cc1c[nH]c2ccccc12)C(=O)N[C@@H](CCCCN)C(=O)N[C@@H](CCCCN)C(N)=O [PNT-GG 1] (5FAM-GGNRRMKWKK-NH2)
- Papp (apparent permeability coefficient) ([2]; epithelial side to donor, donor 100 µM, 200 µL, donor and receiving solutions PBS pH 7.4, hourly sampling, n = 3-4): 1.33 ± 0.11 × 10^−6 cm/s

Compound: CSCC[C@H](NC(=O)[C@H](CCCNC(=N)N)NC(=O)[C@H](CCCNC(=N)N)NC(=O)[C@H](CC(N)=O)NC(=O)[C@H](CCC(N)=O)NC(=O)[C@H](Cc1ccccc1)NC(=O)CNC(=O)CNC(=O)c1ccc2c(c1)C(=O)OC21c2ccc(O)cc2Oc2cc(O)ccc21)C(=O)N[C@@H](CCCCN)C(=O)N[C@@H](Cc1c[nH]c2ccccc12)C(N)=O [PNT-GG 2] (5FAM-GGFQNRRMKW-NH2)
- Papp (apparent permeability coefficient) [2, 4]: 0.55 ± 0.57 × 10^−6 cm/s

Compound: CC[C@H](C)[C@H](NC(=O)CNC(=O)CNC(=O)c1ccc2c(c1)C(=O)OC21c2ccc(O)cc2Oc2cc(O)ccc21)C(=O)N[C@@H](Cc1c[nH]c2ccccc12)C(=O)N[C@@H](Cc1ccccc1)C(=O)N[C@@H](CCC(N)=O)C(=O)N[C@@H](CC(N)=O)C(=O)N[C@@H](CCCNC(=N)N)C(=O)N[C@@H](CCCNC(=N)N)C(=O)N[C@@H](CCSC)C(N)=O [PNT-GG 3] (5FAM-GGIWFQNRRM-NH2)
- Papp (apparent permeability coefficient) [2, 4]: 0.44 ± 0.50 × 10^−6 cm/s

Compound: CC[C@H](C)[C@H](NC(=O)CNC(=O)CNC(=O)c1ccc2c(c1)C(=O)OC21c2ccc(O)cc2Oc2cc(O)ccc21)C(=O)N[C@@H](CCCCN)C(=O)N[C@H](C(=O)N[C@@H](Cc1c[nH]c2ccccc12)C(=O)N[C@@H](Cc1ccccc1)C(=O)N[C@@H](CCC(N)=O)C(=O)N[C@@H](CC(N)=O)C(=O)N[C@@H](CCCNC(=N)N)C(N)=O)[C@@H](C)CC [PNT-GG 4] (5FAM-GGIKIWFQNR-NH2)
- Papp (apparent permeability coefficient) [2, 4]: 0.34 ± 0.14 × 10^−6 cm/s

Compound: CC[C@H](C)[C@H](NC(=O)[C@H](CCCCN)NC(=O)[C@@H](NC(=O)[C@H](CCC(N)=O)NC(=O)[C@H](CCCNC(=N)N)NC(=O)CNC(=O)CNC(=O)c1ccc2c(c1)C(=O)OC21c2ccc(O)cc2Oc2cc(O)ccc21)[C@@H](C)CC)C(=O)N[C@@H](Cc1c[nH]c2ccccc12)C(=O)N[C@@H](Cc1ccccc1)C(=O)N[C@@H](CCC(N)=O)C(N)=O [PNT-GG 5] (5FAM-GGRQIKIWFQ-NH2)
- Papp (apparent permeability coefficient) ([2]; donor 100 µM in PBS pH 7.4, receiving solution PBS+BSA 0.1% pH 7.4, n = 3): 0.50 ± 0.70 ^d × 10^−6 cm/s
- Papp (apparent permeability coefficient) [2, 4]: 0.24 ± 0.40 ^d × 10^−6 cm/s

Compound: CC[C@H](C)[C@H](NC(=O)[C@H](CCCCN)NC(=O)[C@@H](NC(=O)[C@H](CCC(N)=O)NC(=O)[C@H](CCCNC(=N)N)NC(=O)CNC(=O)CNC(=O)c1ccc2c(c1)C(=O)OC21c2ccc(O)cc2Oc2cc(O)ccc21)[C@@H](C)CC)C(=O)N[C@@H](Cc1c[nH]c2ccccc12)C(=O)N[C@@H](Cc1ccccc1)C(=O)N[C@@H](CCC(N)=O)C(=O)N[C@@H](CC(N)=O)C(=O)N[C@@H](CCCNC(=N)N)C(=O)N[C@@H](CCCNC(=N)N)C(=O)N[C@@H](CCSC)C(=O)N[C@@H](CCCCN)C(=O)N[C@@H](Cc1c[nH]c2ccccc12)C(=O)N[C@@H](CCCCN)C(=O)N[C@@H](CCCCN)C(N)=O [PNT-GG]
- Papp (apparent permeability coefficient) [2, 5]: 4.41 ± 2.93 × 10^−6 cm/s
- solubilization of donor solution [3]: complete solubilization

Compound: CC[C@H](C)[C@H](NC(=O)[C@H](CCCCN)NC(=O)[C@@H](NC(=O)[C@H](Cc1c[nH]c2ccccc12)NC(=O)[C@H](Cc1ccccc1)NC(=O)[C@H](CCC(N)=O)NC(=O)CNC(=O)CNC(=O)c1ccc2c(c1)C(=O)OC21c2ccc(O)cc2Oc2cc(O)ccc21)[C@@H](C)CC)C(=O)N[C@@H](CCC(N)=O)C(=O)N[C@@H](CCCNC(=N)N)C(N)=O [PNT-R 1] (5FAM-GGQFWIKIQR-NH2)
- Papp (apparent permeability coefficient) [2, 6]: 0.93 ± 0.53 × 10^−6 cm/s

Compound: CC[C@H](C)[C@H](NC(=O)[C@H](CCCCN)NC(=O)[C@@H](NC(=O)[C@H](Cc1c[nH]c2ccccc12)NC(=O)[C@H](Cc1ccccc1)NC(=O)[C@H](CCC(N)=O)NC(=O)[C@H](CC(N)=O)NC(=O)[C@H](CCCNC(=N)N)NC(=O)CNC(=O)CNC(=O)c1ccc2c(c1)C(=O)OC21c2ccc(O)cc2Oc2cc(O)ccc21)[C@@H](C)CC)C(N)=O [PNT-R 2] (5FAM-GGRNQFWIKI-NH2)
- Papp (apparent permeability coefficient) [2, 6]: 0.23 ± 0.16 × 10^−6 cm/s

Compound: CC[C@H](C)[C@H](NC(=O)[C@H](Cc1c[nH]c2ccccc12)NC(=O)[C@H](Cc1ccccc1)NC(=O)[C@H](CCC(N)=O)NC(=O)[C@H](CC(N)=O)NC(=O)[C@H](CCCNC(=N)N)NC(=O)[C@H](CCCNC(=N)N)NC(=O)[C@H](CCSC)NC(=O)CNC(=O)CNC(=O)c1ccc2c(c1)C(=O)OC21c2ccc(O)cc2Oc2cc(O)ccc21)C(N)=O [PNT-R 3] (5FAM-GGMRRNQFWI-NH2)
- Papp (apparent permeability coefficient) [2, 6]: 0.002 ± 0.004 × 10^−6 cm/s

Continued, values first:

- Papp (apparent permeability coefficient) [2, 6]: 0.13 ± 0.07 × 10^−6 cm/s
Compound: CSCC[C@H](NC(=O)[C@H](CCCCN)NC(=O)[C@H](Cc1c[nH]c2ccccc12)NC(=O)CNC(=O)CNC(=O)c1ccc2c(c1)C(=O)OC21c2ccc(O)cc2Oc2cc(O)ccc21)C(=O)N[C@@H](CCCNC(=N)N)C(=O)N[C@@H](CCCNC(=N)N)C(=O)N[C@@H](CC(N)=O)C(=O)N[C@@H](CCC(N)=O)C(=O)N[C@@H](Cc1ccccc1)C(N)=O [PNT-R 4] (5FAM-GGWKMRRNQF-NH2)

- Papp (apparent permeability coefficient) [2, 6]: 0.05 ± 0.01 × 10^−6 cm/s
Compound: CSCC[C@H](NC(=O)[C@H](CCCCN)NC(=O)[C@H](Cc1c[nH]c2ccccc12)NC(=O)[C@H](CCCCN)NC(=O)[C@H](CCCCN)NC(=O)CNC(=O)CNC(=O)c1ccc2c(c1)C(=O)OC21c2ccc(O)cc2Oc2cc(O)ccc21)C(=O)N[C@@H](CCCNC(=N)N)C(=O)N[C@@H](CCCNC(=N)N)C(=O)N[C@@H](CC(N)=O)C(N)=O [PNT-R 5] (5FAM-GGKKWKMRRN-NH2)

- Papp (apparent permeability coefficient) [2, 5]: 7.08 ± 6.66 × 10^−6 cm/s
- solubilization of donor solution [3]: complete solubilization
Compound: CC[C@H](C)[C@H](NC(=O)[C@H](CCCCN)NC(=O)[C@@H](NC(=O)[C@H](Cc1c[nH]c2ccccc12)NC(=O)[C@H](Cc1ccccc1)NC(=O)[C@H](CCC(N)=O)NC(=O)[C@H](CC(N)=O)NC(=O)[C@H](CCCNC(=N)N)NC(=O)[C@H](CCCNC(=N)N)NC(=O)[C@H](CCSC)NC(=O)[C@H](CCCCN)NC(=O)[C@H](Cc1c[nH]c2ccccc12)NC(=O)[C@H](CCCCN)NC(=O)[C@H](CCCCN)NC(=O)CNC(=O)CNC(=O)c1ccc2c(c1)C(=O)OC21c2ccc(O)cc2Oc2cc(O)ccc21)[C@@H](C)CC)C(=O)N[C@@H](CCC(N)=O)C(=O)N[C@@H](CCCNC(=N)N)C(N)=O [PNT-R] (5FAM-GGKKWKMRRNQFWIKIQR-NH2)

- solubility in aqueous medium [3]: poorly soluble
Compound: FL-GG-KKWKMRRNQFWIKIQR [PNT-R-FL, fluorescein-GG-labelled reversed penetratin, C-terminal amide]

- solubility in aqueous medium [3]: poorly soluble
Compound: FL-GG-WKMRRNQF [PNT-R-4-FL, fluorescein-GG-labelled analogue of PNT-R 4, C-terminal amide]
